Our source for the POD vs vehicle values is the supplement of paper PMC11368000.

Each structure is given as a SMILES string.

The test system of the first assay is 1565 (donor line of iPSC-derived cardiomyocytes). The assay is described as follows: POD (EC05) for decrease in beat frequency (negative chronotrope) vs vehicle; higher = less potent (higher point of departure). Conditions: exposure time: 90 min. The method in brief:
(§1)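 Points of departure specific to each donor were obtained from hierarchical Bayesian Hill fits to vehicle-normalised beat frequency, decay-to-rise ratio or peak frequency. Thresholds were set at 5% change, or 95% loss in the case of peak frequency. The cells were human iPSC-derived cardiomyocytes from 16 donors, exposed for 90 min at 37 °C to 0.1, 1, 10 and 100 µM (final, 0.5% DMSO), with Ca2+ flux read on a FLIPR Tetra before and after exposure.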
As for `O=C(O)C(F)(F)C(F)(F)C(F)(F)C(F)(F)C(F)(F)C(F)(F)C(F)(F)C(F)(F)F` [Perfluorononanoic_acid], the POD vs vehicle was above 100 µM.

For `NC(=O)C(F)(F)C(F)(F)C(F)(F)C(F)(F)C(F)(F)C(F)(F)C(F)(F)F` [Perfluorooctanamide], the POD vs vehicle was above 100 µM.

In turn, `N=C(N)C(F)(F)C(F)(F)C(F)(F)C(F)(F)C(F)(F)C(F)(F)C(F)(F)F` [Perfluorooctanamidine] had a POD vs vehicle above 100 µM.

The compound `O=S(=O)(O)C(F)(F)C(F)(F)C(F)(F)C(F)(F)C(F)(F)C(F)(F)C(F)(F)C(F)(F)F` [Perfluorooctanesulfonic_acid] yielded a POD vs vehicle above 100 µM.

Regarding `O=C(O)C(F)(F)C(F)(F)C(F)(F)C(F)(F)C(F)(F)C(F)(F)C(F)(F)F` [Perfluorooctanoic_acid], the POD vs vehicle was above 100 µM.

The compound `O=C(O)C(F)(F)C(F)(F)C(F)(F)C(F)(F)F` [Perfluoropentanoic_acid] gave a POD vs vehicle above 100 µM.

`O=C(O)C(F)(F)C(F)(F)F` [Perfluoropropanoic_acid] registered a POD vs vehicle above 100 µM.

As to `O=S(=O)([O-])C(F)(F)C(F)(F)C(F)(F)C(F)(F)F.[K+]` [Potassium_perfluorobutanesulfonate], the POD vs vehicle is above 100 µM.

The next assay concerns 1516 (donor line of iPSC-derived cardiomyocytes). Described as above. Conditions: exposure time: 90 min. In a few lines:
as §1
In turn, `O=C(O)C(F)(F)C(F)(F)OC(F)(F)F` [Perfluoro-3-methoxypropanoic_acid] had a POD vs vehicle above 100 µM.

Take `O=C(O)C(F)(F)C(F)(F)C(F)(F)OC(F)(C(F)(F)F)C(F)(F)F` [Perfluoro-4-isopropoxybutanoic_acid]: the POD vs vehicle was above 100 µM.

The compound `O=C(O)C(F)(F)C(F)(F)C(F)(F)F` [Perfluorobutanoic_acid] gave a POD vs vehicle above 100 µM.

`O=C(O)C(F)(F)C(F)(F)C(F)(F)C(F)(F)C(F)(F)C(F)(F)C(F)(F)C(F)(F)C(F)(F)F` [Perfluorodecanoic_acid]: the POD vs vehicle turned out to be 14.9 µM.

The compound `O=C(O)C(F)(F)C(F)(F)C(F)(F)C(F)(F)C(F)(F)C(F)(F)F` [Perfluoroheptanoic_acid] yielded a POD vs vehicle of 68.1 µM.

For `NS(=O)(=O)C(F)(F)C(F)(F)C(F)(F)C(F)(F)C(F)(F)C(F)(F)F` [Perfluorohexanesulfonamide], the POD vs vehicle was 14.3 µM.

Consider `O=S(=O)(O)C(F)(F)C(F)(F)C(F)(F)C(F)(F)C(F)(F)C(F)(F)F` [Perfluorohexanesulfonic_acid], for which the POD vs vehicle was 17.6 µM.

Consider `O=C(O)C(F)(F)C(F)(F)C(F)(F)C(F)(F)C(F)(F)F` [Perfluorohexanoic_acid], for which the POD vs vehicle was above 100 µM.

For `O=C(O)C(F)(F)C(F)(F)C(F)(F)C(F)(F)C(F)(F)C(F)(F)C(F)(F)C(F)(F)F` [Perfluorononanoic_acid], the POD vs vehicle turned out to be 20.4 µM.

`NC(=O)C(F)(F)C(F)(F)C(F)(F)C(F)(F)C(F)(F)C(F)(F)C(F)(F)F` [Perfluorooctanamide] gave a POD vs vehicle above 100 µM.

With `N=C(N)C(F)(F)C(F)(F)C(F)(F)C(F)(F)C(F)(F)C(F)(F)C(F)(F)F` [Perfluorooctanamidine], the POD vs vehicle is above 100 µM.

In turn, `O=S(=O)(O)C(F)(F)C(F)(F)C(F)(F)C(F)(F)C(F)(F)C(F)(F)C(F)(F)C(F)(F)F` [Perfluorooctanesulfonic_acid] had a POD vs vehicle of 20.4 µM.

As for `O=C(O)C(F)(F)C(F)(F)C(F)(F)C(F)(F)C(F)(F)C(F)(F)C(F)(F)F` [Perfluorooctanoic_acid], the POD vs vehicle was 9 µM.

For the compound `O=C(O)C(F)(F)C(F)(F)C(F)(F)C(F)(F)F` [Perfluoropentanoic_acid], the POD vs vehicle is above 100 µM.

`O=C(O)C(F)(F)C(F)(F)F` [Perfluoropropanoic_acid]: the POD vs vehicle is above 100 µM.

With `O=S(=O)([O-])C(F)(F)C(F)(F)C(F)(F)C(F)(F)F.[K+]` [Potassium_perfluorobutanesulfonate], the POD vs vehicle is above 100 µM.

A further assay concerns 1309 (donor line of iPSC-derived cardiomyocytes). The description is as above. Conditions: exposure time: 90 min. The method in brief: as §1
`O=C(O)C(F)(F)C(F)(F)OC(F)(F)F` [Perfluoro-3-methoxypropanoic_acid] gave a POD vs vehicle above 100 µM.

With `O=C(O)C(F)(F)C(F)(F)C(F)(F)OC(F)(C(F)(F)F)C(F)(F)F` [Perfluoro-4-isopropoxybutanoic_acid], the POD vs vehicle is above 100 µM.

As for `O=C(O)C(F)(F)C(F)(F)C(F)(F)F` [Perfluorobutanoic_acid], the POD vs vehicle was above 100 µM.

`O=C(O)C(F)(F)C(F)(F)C(F)(F)C(F)(F)C(F)(F)C(F)(F)C(F)(F)C(F)(F)C(F)(F)F` [Perfluorodecanoic_acid] registered a POD vs vehicle of 56.2 µM.

For `O=C(O)C(F)(F)C(F)(F)C(F)(F)C(F)(F)C(F)(F)C(F)(F)F` [Perfluoroheptanoic_acid], the POD vs vehicle is above 100 µM.

Compound `NS(=O)(=O)C(F)(F)C(F)(F)C(F)(F)C(F)(F)C(F)(F)C(F)(F)F` [Perfluorohexanesulfonamide] registered a POD vs vehicle of 14.7 µM.

On to `O=S(=O)(O)C(F)(F)C(F)(F)C(F)(F)C(F)(F)C(F)(F)C(F)(F)F` [Perfluorohexanesulfonic_acid], for which the POD vs vehicle is 78.1 µM.

Regarding `O=C(O)C(F)(F)C(F)(F)C(F)(F)C(F)(F)C(F)(F)F` [Perfluorohexanoic_acid], the POD vs vehicle is above 100 µM.

Consider `O=C(O)C(F)(F)C(F)(F)C(F)(F)C(F)(F)C(F)(F)C(F)(F)C(F)(F)C(F)(F)F` [Perfluorononanoic_acid], for which the POD vs vehicle is 35.2 µM.

In turn, `NC(=O)C(F)(F)C(F)(F)C(F)(F)C(F)(F)C(F)(F)C(F)(F)C(F)(F)F` [Perfluorooctanamide] had a POD vs vehicle above 100 µM.

`N=C(N)C(F)(F)C(F)(F)C(F)(F)C(F)(F)C(F)(F)C(F)(F)C(F)(F)F` [Perfluorooctanamidine] showed a POD vs vehicle above 100 µM.

As to `O=S(=O)(O)C(F)(F)C(F)(F)C(F)(F)C(F)(F)C(F)(F)C(F)(F)C(F)(F)C(F)(F)F` [Perfluorooctanesulfonic_acid], the POD vs vehicle is above 100 µM.

Compound `O=C(O)C(F)(F)C(F)(F)C(F)(F)C(F)(F)C(F)(F)C(F)(F)C(F)(F)F` [Perfluorooctanoic_acid] returned a POD vs vehicle of 11.1 µM.

`O=C(O)C(F)(F)C(F)(F)C(F)(F)C(F)(F)F` [Perfluoropentanoic_acid] came in with a POD vs vehicle above 100 µM.

`O=C(O)C(F)(F)C(F)(F)F` [Perfluoropropanoic_acid] gave a POD vs vehicle above 100 µM.

Turning to `O=S(=O)([O-])C(F)(F)C(F)(F)C(F)(F)C(F)(F)F.[K+]` [Potassium_perfluorobutanesulfonate], the POD vs vehicle is above 100 µM.
